In assay [1] the target is recombinant ALK kinase domain (Homo sapiens, UniProt Q9UM73). In words: LanthaScreen Eu Kinase Binding Assay, recombinant ALK kinase domain. The settings on record: room temperature, 1 h. How it is done:
Enzymatic assay for recombinant ALK kinase domain was conducted using the LanthaScreen® Eu Kinase Binding Assays. LanthaScreen® Eu Kinase Binding Assays are based on the binding and displacement of a proprietary. The assay was performed at room temperature for 1 h in a total volume of 15 μL, including 5 μL of test compound, 5 μL of kinase/antibody mixture and 5 μL of tracer. After 1 h incubation, fluorescence was measured. The division of acceptor/tracer emission (665 nm) by the antibody/donor emission (615 nm) was used to calculate the emission ratio.

A further assay has as its system normal lung cells CCD19. In words: MTT cell viability assay, normal lung cells CCD19. Conditions: 72 h treatment. In kind it is cell-based. How it is done: (§1) H2228 and CCD19(Lu) cells were obtained from the American Type Culture Collection and cultured in an environment of 5% CO2 at 37° C. in RPMI-1640 mediums supplemented with 10% fetal bovine serum (FBS), 100 units/mL penicillin, and 100 μg/mL streptomycin.
(§2) Cell viability was determined by MTT assay. H2228 and CCD19 cells (3×10^3 cells/well) were seeded into a 96-well plate and treated with indicated concentrations of the compound of Formula (V) for 72 h. At the end of incubation, 10 μl MTT (0.5 mg/ml) (Sigma) was added to each well. After incubating for 4 h at 37° C., supernatants were removed and 150 μl of DMSO was added. The formazan crystals formed inside the viable cells were solubilized in DMSO and the OD was read with Microplate Reader (Epoch, Winooski, USA) at 570 nm. The IC50 value for the compound was determined by GraphPad Prim5.0 software. The experiments were performed three times with three replicates in each.

A further assay concerns H2228 cells. Put plainly: MTT cell viability assay, H2228 cells. Format: cell-based. Conditions: Homo sapiens, NCI-H2228, 72 h treatment. How it is done: as §1, §2

Chain of recombinant ALK kinase domain (Q9UM73 1116-1392 limits assumed): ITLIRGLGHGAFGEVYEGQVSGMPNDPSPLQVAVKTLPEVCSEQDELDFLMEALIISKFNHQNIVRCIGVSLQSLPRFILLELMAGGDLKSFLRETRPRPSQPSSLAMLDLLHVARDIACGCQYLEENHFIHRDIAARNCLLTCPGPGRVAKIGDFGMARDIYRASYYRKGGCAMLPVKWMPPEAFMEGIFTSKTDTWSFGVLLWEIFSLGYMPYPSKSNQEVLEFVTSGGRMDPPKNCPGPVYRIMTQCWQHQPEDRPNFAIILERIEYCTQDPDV

For the compound `Cc1sc2nc3c4ccccc4c(NCCCN(C)C)nn3c(=O)c2c1C` [Formula (V)], in assay [1], the EC50 worked out at 0.0196 µM. Moreover, the IC50 in the assay on normal lung cells CCD19 turned out to be 16.8 ± 2.04 µM; in the assay with H2228 cells it was 4.11 ± 0.96 µM.

Source of the values: patent publication US10111876B2, “ALK Kinase Inhibitor and its use” (Macau University of Science and Technology, priority 2016, dated 2018).
